The values that follow come from patent publication US4550186A, “Binuclear copper (II) carboxylates formed from amine-carboxyboranes” (Duke University, priority 1983, dated 1985).

One assay concerns the target T1, Acetyl CoA Carboxylase (Mus musculus, UniProt Q5SWU9).
T1 construct: 10% homogenates of CF1 male mouse liver; from tissue; host or cells: CF1 male mouse liver, 10% homogenate
Nature of the assay: In vitro liver enzyme study: acetyl CoA carboxylase. To be noted: in vitro CF1 liver. Format: biochemical. The protocol:
In vitro enzymatic studies were determined using 10% homogenates of CF1 male mouse liver with 50-200 μM of test drugs. In vivo enzymatic studies were determined using 10% homogenates of liver from CF1 male mice obtained after administering the agents for 16 days at a dose ranging from 2.5-20 mg/kg/day intraperitoneally. The liver homogenates for both in vitro and in vivo studies were prepared in 0.25M sucrose and 0.001M (ethylenedinitrilo)tetraacetic acid. Acetyl coenzyme A synthetase and adenosine triphosphate dependent citrate lyase activities were determined spectrophotometrically at 540 nm as the hydroxylamate of acetyl coenzyme A formed after 30 min at 37° C. Mitochondrial citrate exchange was determined by the procedure of Robinson et al [Eur. J. Biochem., 216, 63 (1970)] using ^14 C-sodium bicarbonate (41 mCi/mmol) incorporated into mitochondrial ^14 C-citrate after isolating rat mitochondria (9000 g×10 min) from the homogenates. The exchanges of the ^14 C-citrate were determined after incubating the mitochondrial fraction which was loaded with labeled citrate and test drugs for 10 min. Then the radioactivity was measured in the mitochondrial and supernantant fractions in scintillation fluid and expressed as a percentage. Cholesterol side chain oxidation was determined by the method of Kritchevsky and Tepper [Artherosclerosis, 18, 93 (1973)] using (26-^14 C) cholesterol (50 mCi/mmol) and mitochondria isolated from rat liver homogenates. […] Fatty acid synthetase activity was determined by the method of Brady et al [J. Biol. Chem., 235, 3093 (1960)] using [2-^14 C] malonyl-coenzyme A (37.5 mCi/mmol) which was incorporated into newly synthesized fatty acids that were extracted with ether and counted. Acyl transferase activity was determined with glycerol-3phosphate [L-2-^3 H(N)] […] HCl and counted. Phosphatidate phosphohydrolase activity was measured as the inorganic phosphate released after 30 min from phosphatidic acid by the method of Mavis et al [J. Lipid Res., 19, 467 (1978)]. […]

In assay [1] the test system is inosinic acid dehydrogenase. Nature of the assay: In vivo inosinic acid dehydrogenase activity. Details: species or system mouse. The protocol: (§1) CF1 male mice (~30 g) were implanted with 2×10^6 Ehrlich ascites tumor cells, intraperitoneally on Day 0. Compound I was suspended by homogenation in 0.05% polysorbate.80-water and administered intraperitoneally at 10 and 20 mg/kg for 9 days to determine its effectiveness for inhibition of tumor growth. Mice were sacrificed on Day 10, and the ascites fluid was collected from the peritoneal cavity. The volume and ascrit (packed cell volume) were determined for each animal and the percent inhibition of tumor growth was calculated. For the metabolic studies, mice were treated on Days 8 and 9 with 10 mg/kg of Compound I, intraperitoneally. […]
(§2) Carbamyl phosphate synthetase activity was determined using the reaction medium of Kalman et al [Am. […] Citrulline formed from ornithine was measured at 490 nm by the method of Archibald [J. Biol. Chem., 156, 121 (1944)]. […] The ^14 CO2 generated in 15 min was trapped in 1M KOH and counted. Thymidylate synthetase activity was determined using a post-mitochondrial supernatant (9000 g×10 min) and 5 μCi of 5-^3 H-deoxyuridine monophosphate (14 Ci/mmol) according to the method of Kampf et al [ J. Med. Chem., 19, 903 (1976)]. ^14 C-Formate incorporation into purines was determined by the method of Spassova et al [Biochem. Pharmacol., 25, 923 (1976)] using 0.5 μCi of ^14 C-formic acid (52.0 mCi/mmol). […] The Rf value for xanthine monophosphate was scraped and counted. […]

A further assay addresses thymidylate synthetase (Mus musculus, UniProt P07607). Nature of the assay: In vivo thymidylate synthetase activity. The protocol: as §1, §2
[2] abbreviates: 10 mg/kg/day I.P. on Days 8 and 9.

Like-named read-outs stand apart in the source and are kept apart here.

thymidylate synthetase, sequence (P07607 whole entry): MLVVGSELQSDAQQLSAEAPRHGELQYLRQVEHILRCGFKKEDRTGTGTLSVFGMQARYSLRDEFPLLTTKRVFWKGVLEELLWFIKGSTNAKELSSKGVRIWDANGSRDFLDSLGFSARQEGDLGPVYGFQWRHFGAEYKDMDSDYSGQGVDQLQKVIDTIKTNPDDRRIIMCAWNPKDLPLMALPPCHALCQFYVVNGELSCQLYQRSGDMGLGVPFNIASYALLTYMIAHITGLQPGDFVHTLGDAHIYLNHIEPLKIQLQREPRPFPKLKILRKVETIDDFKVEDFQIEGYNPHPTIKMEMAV

For “{Cu[(CH3)3 N.BH2 CO2 ]2.(CH3)3 N.BH2 COOH} [Compound I]”, the “Acetyl CoA Carboxylase” value at Acetyl CoA Carboxylase (50 μM) turned out to be 96 ± 6 Percent Control; at Acetyl CoA Carboxylase (100 μM), 93 ± 5 Percent Control; on Acetyl CoA Carboxylase (200 μM), 92 ± 5 Percent Control. Moreover, the “Inosinic acid dehydrogenase activity” value in assay [1] was “essentially not affected”; in assay [1] (setting [2]), 100 ± 9 % Control. Also, the “Thymidylate synthetase activity suppressed” value at thymidylate synthetase is 5%. For the same substance, the Thymidylate synthetase activity at thymidylate synthetase (setting [2]) is listed as 102 ± 9 % Control.
